US20230016034A1, “ENHANCEMENT OF iPSC-DERIVED EFFECTOR IMMUNE CELL USING SMALL COMPOUNDS” (Fate Therapeutics, Inc., priority 2019, published 2023)

System: Nalm6-luciferase cells
Test: In vivo efficacy of dexamethasone-treated post-thaw CD19-CAR iT cells, systemic Nalm6-luciferase model
Parameters: species or system NSG female mice
Conditions: p>0.1
Description: Tumor progression was monitored at days 7, 14 and 20 post tumor injection by bioluminescent imaging. CAR-iT cells treated with dexamethasone (FIG. 8B) were compared with control cells without dexamethasone treatment (FIG. 8A) in cultures for iv/iv in vivo efficacy.

SMILES: C[C@@H]1C[C@H]2[C@@H]3CCC4=CC(=O)C=C[C@]4(C)[C@@]3(F)[C@@H](O)C[C@]2(C)[C@@]1(O)C(=O)CO [dexamethasone]
- Days of survival: > 80 days
